The record followed here is US20250230193A1, “CYCLIC COMPOUND HAVING SELECTIVE KRAS INHIBITORY EFFECT ON HRAS AND NRAS” (CHUGAI SEIYAKU KABUSHIKI KAISHA, priority 2022, published 2025).

Test [1] concerns the target GDP-bound HRAS wild-type protein (Homo sapiens, UniProt P01112). Kind of test: Binding to HRAS by surface plasmon resonance (SPR), Single Cycle Kinetics. Particulars: for HRAS/KRAS (ratio of KD value with respect to HRAS to KD value with respect to KRAS): GDP-bound HRAS wild-type vs GDP-bound KRAS wild-type. (In general: Surface plasmon resonance follows binding to a sensor surface in real time, without labels.)

In test [2] the target is GDP-bound NRAS wild-type protein (Homo sapiens, UniProt P01111). Kind of test: Binding to NRAS by surface plasmon resonance (SPR), Single Cycle Kinetics. Particulars: for NRAS/KRAS (ratio of KD value with respect to NRAS to KD value with respect to KRAS): GDP-bound NRAS wild-type vs GDP-bound KRAS wild-type.

Molecules are shown by their SMILES. *1 amine or outer side, *2 acyl side, *3 side chain or, on linkers, in order; H or OH if unused. Where a SMILES comes first, the peptide text is derived from it. Bridges are numbered along the chain shown (N, C = ends). [ ]: non-standard residue; d: D form. The star is where a group is joined. hPhe(3-Cl-4-CF3) = N[C@@H](CCc1ccc(C(F)(F)F)c(Cl)c1)C(=O)O; NPrPhe(4-CF3) = CCCN[C@@H](Cc1ccc(C(F)(F)F)cc1)C(=O)O; NMeGly(cPent) = CN[C@H](C(=O)O)C1CCCC1; NMeD = CN[C@@H](CC(=O)O)C(=O)O; NMeL = CN[C@@H](CC(C)C)C(=O)O; X14 = N#CCN(CC(=O)[*:2])[*:1]; Morpholide = C1CN(*)CCO1; Ac5c = NC1(C(=O)O)CCCC1; Aze = O=C(O)[C@@H]1CCN1; Sar = CNCC(=O)O

Sequence of GDP-bound NRAS wild-type protein (P01111 whole entry): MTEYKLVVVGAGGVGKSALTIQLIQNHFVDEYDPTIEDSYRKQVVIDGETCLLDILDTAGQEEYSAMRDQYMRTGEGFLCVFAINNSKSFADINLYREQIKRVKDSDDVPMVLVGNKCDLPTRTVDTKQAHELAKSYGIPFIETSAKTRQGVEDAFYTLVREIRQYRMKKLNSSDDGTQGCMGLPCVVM
Sequence of GDP-bound HRAS wild-type protein (P01112 whole entry): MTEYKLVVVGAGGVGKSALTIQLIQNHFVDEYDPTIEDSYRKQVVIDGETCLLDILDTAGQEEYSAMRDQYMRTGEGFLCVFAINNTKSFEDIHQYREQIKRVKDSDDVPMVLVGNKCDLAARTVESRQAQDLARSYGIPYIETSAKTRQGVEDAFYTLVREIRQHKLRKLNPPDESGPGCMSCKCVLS

With `CCO[C@@H]1C[C@H]2C(=O)NC3(CCCC3)C(=O)N(C)[C@@H](C3CCCC3)C(=O)N(C)[C@H](C(=O)N3CCOCC3)CC(=O)N(C)[C@@H](CC(C)C)C(=O)N[C@@H]([C@@H](C)CC)C(=O)N(C)CC(=O)N(C)[C@H]3CC(C)=CCN(C3=O)[C@@H](Cc3ccc(C(F)(F)F)cc3)C(=O)N(C)CC(=O)N[C@@H](CCc3cc(F)c(C(F)(F)F)c(F)c3)C(=O)N2C1` [PP1038], in test [1] (SPR), the “HRAS/KRAS (ratio of KD value with respect to HRAS to KD value with respect to KRAS)” value is “C (A compound having a KD ratio of 0.1 or more and less than 3 is denoted as C)”. The “NRAS/KRAS (ratio of KD value with respect to NRAS to KD value with respect to KRAS)” value in test [2] (SPR) is “C (A compound having a KD ratio of 0.1 or more and less than 3 is denoted as C)”.

For `C=CCCC[C@H]1C(=O)N[C@@H]([C@@H](C)CC)C(=O)N(C)CC(=O)N(C)[C@H]2CCCCN(C2=O)[C@@H](Cc2ccc(C(F)(F)F)cc2)C(=O)N(C)CC(=O)N[C@@H](CCc2cc(F)c(C(F)(F)F)c(F)c2)C(=O)N2C[C@H](OCC)C[C@H]2C(=O)N[C@](C)(CC=C)C(=O)N(C)[C@@H](C2CCCC2)C(=O)N(C)[C@H](C(=O)N2CCOCC2)CC(=O)N1C` [PP0876], the “HRAS/KRAS (ratio of KD value with respect to HRAS to KD value with respect to KRAS)” value in test [1] (SPR) is “C (A compound having a KD ratio of 0.1 or more and less than 3 is denoted as C)”. For the same compound, the “NRAS/KRAS (ratio of KD value with respect to NRAS to KD value with respect to KRAS)” value in test [2] (SPR) was “C (A compound having a KD ratio of 0.1 or more and less than 3 is denoted as C)”.

`CCCN1C(=O)[C@@H]2CCN2C(=O)CN(CC#N)C(=O)[C@H]([C@@H](C)CC)NC(=O)[C@H](CC(C)C)N(C)C(=O)C[C@@H](C(=O)N2CCOCC2)N(C)C(=O)[C@H](C2CCCC2)N(C)C(=O)C2(CCCC2)NC(=O)[C@@H]2CCCN2C(=O)[C@H](CCc2ccc(C(F)(F)F)c(Cl)c2)NC(=O)CN(C)C(=O)[C@@H]1Cc1ccc(C(F)(F)F)cc1` [PP0275] ([NMeL]I[X14][Aze][NPrPhe(4-CF3)][Sar][hPhe(3-Cl-4-CF3)]P[Ac5c][NMeGly(cPent)][NMeD]-Morpholide; lactam N-11): the “HRAS/KRAS (ratio of KD for GDP-bound HRAS wild-type to KD for KRAS)” value in test [1] (KD ratio HRAS/KRAS, SPR) was “C (A compound having a KD ratio of 0.1 or more and less than 3 is denoted as C)”. The “NRAS/KRAS (ratio of KD for GDP-bound NRAS wild-type to KD for KRAS)” value in test [2] (KD ratio NRAS/KRAS, SPR) was “C (A compound having a KD ratio of 0.1 or more and less than 3 is denoted as C)”.

Turning to `CC[C@H](C)[C@@H]1NC(=O)[C@H](CC(C)C)N(C)C(=O)C[C@@H](C(=O)N2CCOCC2)N(C)C(=O)[C@H](C2CCCC2)N(C)C(=O)C2(CCC2)NC(=O)[C@@H]2CC(F)(F)CN2C(=O)[C@H](CCc2cc(F)c(C(F)(F)F)c(F)c2)NC(=O)CN(C)C(=O)[C@H](Cc2ccc(C(F)(F)F)cc2)N2CCCC[C@@H](C2=O)N(C)C(=O)CN(C)C1=O` [PP0575], the “HRAS/KRAS (ratio of KD value with respect to GDP-bound HRAS wild-type protein to KD value with respect to KRAS)” value in test [1] (KD ratio HRAS/KRAS, SPR) is “B (a compound having 3 or more and less than 10 is denoted as B)”. Moreover, the “NRAS/KRAS (ratio of KD value with respect to GDP-bound NRAS wild-type protein to KD value with respect to KRAS)” value in test [2] (KD ratio NRAS/KRAS, SPR) was “B (a compound having 3 or more and less than 10 is denoted as B)”.

Turning to `CCC[C@H]1C(=O)N[C@@H]([C@@H](C)CC)C(=O)N(C)CC(=O)N(C)[C@H]2CCCCCN(C2=O)[C@@H](Cc2ccc(C(F)(F)F)cc2)C(=O)N(C)CC(=O)N[C@@H](CCc2cc(F)c(C(F)(F)F)c(F)c2)C(=O)N2C[C@H](OCC)C[C@H]2C(=O)NC2(CCC2)C(=O)N(C)[C@@H](C2CCCC2)C(=O)N(C)[C@H](C(=O)N2CCOCC2)CC(=O)N1C` [PP0679], in test [1] (KD ratio HRAS/KRAS, SPR), the “HRAS/KRAS (ratio of KD value with respect to GDP-bound HRAS wild-type protein to KD value with respect to KRAS)” value is “B (a compound having 3 or more and less than 10 is denoted as B)”. Moreover, the “NRAS/KRAS (ratio of KD value with respect to GDP-bound NRAS wild-type protein to KD value with respect to KRAS)” value in test [2] (KD ratio NRAS/KRAS, SPR) is “B (a compound having 3 or more and less than 10 is denoted as B)”.

`CCO[C@@H]1C[C@H]2C(=O)NC3(CCC3)C(=O)N(C)[C@@H](C3CCCC3)C(=O)N(C)[C@H](C(=O)N3CCOCC3)CC(=O)N(C)[C@@H](CC(C)C)C(=O)N[C@@H](C3CC(F)(F)C3)C(=O)N(C)CC(=O)N(C)[C@H]3CCCCCN(C3=O)[C@@H](Cc3ccc(C(F)(F)F)cc3)C(=O)N(C)CC(=O)N[C@@H](CCc3cc(F)c(C(F)(F)F)c(F)c3)C(=O)N2C1` [PP0816]: the “HRAS/KRAS (ratio of KD value with respect to HRAS to KD value with respect to KRAS)” value in test [1] (SPR) was “B (a compound having 3 or more and less than 10 is denoted as B)”. For the same compound, the “NRAS/KRAS (ratio of KD value with respect to NRAS to KD value with respect to KRAS)” value in test [2] (SPR) was “A (a compound having 10 or more and less than 20 is denoted as A)”.

As for `CCC[C@H]1C(=O)N[C@@H]([C@@H](C)CC)C(=O)N(C)CC(=O)N(C)[C@H]2C/C=C\CCN(C2=O)[C@@H](Cc2ccc(C(F)(F)F)cc2)C(=O)N(C)CC(=O)N[C@@H](CCc2ccc(Cl)c(OC)c2)C(=O)N2C[C@H](OCC)C[C@H]2C(=O)NC2(CC(C)(C)C2)C(=O)N(C)[C@@H](C2CCCC2)C(=O)N(C)[C@H](C(=O)N(C)C)CC(=O)N1C` [PP2788], the “HRAS/KRAS (ratio of KD value with respect to GDP-bound HRAS wild-type protein to KD value with respect to KRAS)” value in test [1] (KD ratio HRAS/KRAS, class symbols) is “A (a compound having 10 or more and less than 20 is denoted as A)”. The “NRAS/KRAS (ratio of KD value with respect to GDP-bound NRAS wild-type protein to KD value with respect to KRAS)” value in test [2] (KD ratio NRAS/KRAS, class symbols) is “A (a compound having 10 or more and less than 20 is denoted as A)”.
